{"source": "patent US12472218B2", "about": "“Seneca valley virus (SVV) cellular receptor targeted oncotherapy” (Memorial Sloan-Kettering Cancer Center, priority 2015, dated 2025)", "molecules": {"B1": {"name": "ANTXR2-Fc chimera (Fc fusion)", "chain": "QEQPSCRRAFDLYFVLDKSGSVANNWIEIYNFVQQLAERFVSPEMRLSFIVFSSQATIILPLTGDRGKISKGLEDLKRVSPVGETYIHEGLKLANEQIQKAGGLKTSSIIIALTDGKLDGLVPSYAEKEAKISRSLGASVYCVGVLDFEQAQLERIADSKEQVFPVKGGFQALKGIINSILAQSCTEILELQPSSVCVGEEFQIVLSGRGFMLGSRNGSVLCTYTVNETYTTSVKPVSVQLNSMLCPAPILNKAGETLDVSVSFNGGKSVISGSLIVTATECSNG", "notes": "Bought reagent; also called ANTXR2-Fc chimeric protein; ANTXR2-Fc protein; not shown: Fc part of the chimera; the control isotype is an IgG1 Fc"}, "B2": {"name": "ANTXR2-Fc (protein)", "chain": "B1 chain", "modifications": "left off: a dimerising Fc or GST"}, "B3": {"name": "ANTXR1-Fc (protein)", "chain": "EDGGPACYGGFDLYFILDKSGSVLHHWNEIYYFVEQLAHKFISPQLRMSFIVFSTRGTTLMKLTEDREQIRQGLEELQKVLPGGDTYMHEGFERASEQIYYENRQGYRTASVIIALTDGELHEDLFFYSEREANRSRDLGAIVYCVGVKDFNETQLARIADSKDHVFPVNDGFQALQGIIHSILKKSCIEILAAEPSTICAGESFQVVVRGNGFRHARNVDRVLCSFKINDSVTLNEKPFSVEDTYLLCPAPILKEVGMKAALQVSMNDGLSFISSSVIITTTHCSDGS", "modifications": "left off: a dimerising Fc or GST"}}, "key": {"[1]": {"test_system": "H1618 and DMS79 cells", "test": "IFN response activity assay: pre-treatment, SVV-GFP challenge, flow cytometry", "conditions": "then SVV-GFP 16 h, both cell lines; for GFP+ cells compared to untreated cells: 4 μM HDAC inhibitor pre-treatment 24 h"}, "[2]": {"test_system": "ANTXR1 KO H446 cells", "test": "SVV-Cy5 binding experiment, flow cytometry", "set-up": "species or system human", "conditions": "SVV-Cy5 30 min at 37° C.", "method": "(§1) SVV was incubated with the amine-reactive Cy5 dye (GE Healthcare) in sodium carbonate buffer (pH 9.3) for 1 h at room temperature (RT). Excess dye was removed by filtration through gel filtration columns (GE Healthcare) in HEPES buffer. Virus aliquots were stored at −80° C. parental, ANTXR1 KO, and TEX2 KO H446 cells were incubated with SVV-Cy5 for 30 min at 37° C. in OptiMEM. The non-permissive SCLC cell line, DMS114, was used as a negative control. […] All compensation and gating were performed with FlowJo analysis software (TreeStar) as described below."}, "[3]": {"test_system": "TEX2 KO H446 cells", "test": "SVV-Cy5 binding experiment, flow cytometry", "set-up": "species or system human", "conditions": "SVV-Cy5 30 min at 37° C.", "method": "as §1"}, "[4]": {"test_system": "parental H446 cells", "test": "SVV-Cy5 binding experiment, flow cytometry", "set-up": "species or system human", "conditions": "SVV-Cy5 30 min at 37° C.", "method": "as §1"}, "[5]": {"test_system": "DMS114 cells", "test": "SVV-Cy5 binding experiment, flow cytometry", "set-up": "species or system human", "conditions": "SVV-Cy5 30 min at 37° C.; non-permissive negative control line", "method": "as §1"}, "[6]": {"molecular_target": "T1, Seneca Valley Virus (SVV) (Seneca Valley Virus, UniProt Q155Z9 674-937; Q155Z9 151-434; Q155Z9 435-673; Q155Z9 80-150)", "T1 construct": "domain: VP1;domain: VP2;domain: VP3;domain: VP4; also called SVV-001; WT SVV", "T1 sequence 1": "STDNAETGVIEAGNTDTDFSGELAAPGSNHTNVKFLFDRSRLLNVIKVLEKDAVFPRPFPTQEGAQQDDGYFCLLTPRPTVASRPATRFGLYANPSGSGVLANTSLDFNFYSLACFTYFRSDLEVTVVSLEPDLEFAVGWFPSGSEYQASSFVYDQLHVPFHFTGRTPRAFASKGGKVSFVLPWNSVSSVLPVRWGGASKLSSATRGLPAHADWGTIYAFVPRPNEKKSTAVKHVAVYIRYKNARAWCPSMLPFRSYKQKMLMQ", "T1 sequence 2": "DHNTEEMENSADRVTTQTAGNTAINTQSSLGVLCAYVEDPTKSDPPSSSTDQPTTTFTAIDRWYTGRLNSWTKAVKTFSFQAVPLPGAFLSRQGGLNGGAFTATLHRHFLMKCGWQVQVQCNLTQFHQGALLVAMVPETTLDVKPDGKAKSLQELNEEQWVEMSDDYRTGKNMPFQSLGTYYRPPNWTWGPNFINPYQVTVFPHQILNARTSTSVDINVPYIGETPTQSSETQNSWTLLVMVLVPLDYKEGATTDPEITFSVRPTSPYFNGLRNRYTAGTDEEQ", "T1 sequence 3": "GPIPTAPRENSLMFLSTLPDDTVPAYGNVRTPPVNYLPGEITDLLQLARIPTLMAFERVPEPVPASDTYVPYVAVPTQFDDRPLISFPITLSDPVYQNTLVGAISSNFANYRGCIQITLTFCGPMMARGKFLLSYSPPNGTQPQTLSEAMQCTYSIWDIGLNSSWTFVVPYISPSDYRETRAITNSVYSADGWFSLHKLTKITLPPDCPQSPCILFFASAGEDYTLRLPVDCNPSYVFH", "T1 sequence 4": "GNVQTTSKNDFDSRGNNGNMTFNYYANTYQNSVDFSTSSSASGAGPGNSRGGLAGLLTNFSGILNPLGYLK", "test": "co-immunoprecipitation on Protein G Dynabeads, Western blot with SVV rabbit antisera"}, "[7]": {"test_system": "SVV", "test": "Co-immunoprecipitation of SVV with Fc chimera proteins, Western blot", "conditions": "Fc protein on Protein G Dynabeads, SVV 2.0×10^10 vp, 2 h at 4° C."}, "[8]": {"test_system": "SVV-GFP", "test": "Blocking experiment: SVV-GFP pre-incubated with Fc protein, then added to parental H446 cells", "conditions": "5 μg/mL Fc protein with SVV-GFP (MOI=5) on ice 1 h, then parental H446 cells overnight"}}}
{"molecule": "O=C(CCCCCCC(=O)Nc1ccccc1)NO", "note": "[SAHA, Vorinostat]", "values": [{"measurement": "GFP+ cells compared to untreated cells", "setting": "[1]", "value": "significant increase"}]}
{"molecule": "SVV-Cy5: WT SVV labeled with the fluorophore Cy5", "values": [{"measurement": "mean fluorescence (MF)", "setting": "[2]", "value": 358}, {"measurement": "mean fluorescence (MF)", "setting": "[3]", "value": "2,233"}, {"measurement": "mean fluorescence (MF)", "setting": "[4]", "value": "2,373"}, {"measurement": "mean fluorescence (MF)", "setting": "[5]", "value": 425}]}
{"molecule": "IFNα", "values": [{"measurement": "SVV permissive, or GFP+ cells", "setting": "[1]; 25 Units/mL IFN pre-treatment 24 h", "value": "decrease"}]}
{"molecule": "Nc1ccccc1NC(=O)c1ccc(CNC(=O)OCc2cccnc2)cc1", "note": "[MS-275]", "values": [{"measurement": "GFP+ cells compared to untreated cells", "setting": "[1]", "value": "significant increase"}]}
{"molecule": "B1", "values": [{"measurement": "binding result", "setting": "[6]", "value": "no binding"}]}
{"molecule": "B2", "values": [{"measurement": "SVV viral protein bands co-immunoprecipitated (direct interaction with SVV)", "setting": "[7]", "value": "absence of an interaction"}, {"measurement": "GFP+ cells (SVV-GFP infection) by fluorescence microscopy", "setting": "[8]", "value": "high levels of GFP+ cells"}]}
{"molecule": "B3", "values": [{"measurement": "SVV viral protein bands co-immunoprecipitated (direct interaction with SVV)", "setting": "[7]", "value": "viral protein bands were observed"}, {"measurement": "GFP+ cells (SVV-GFP infection) by fluorescence microscopy", "setting": "[8]", "value": "no detectable GFP+ cells"}]}
